Legend:
Experiment in all cases: relative viability (nuclei count vs DMSO), 5 days (fraction); higher = more cells survive
201T = tested on: 201T
Procedure, shortened: (§1)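 Nuclei were stained with Hoechst during a one-step fixation (final 0.05% Triton X-100, 1% formaldehyde, 1 ug/ml Hoechst) carried out 5 days after dosing, then counted on 4× images. The cells, lung cancer lines in 1536-well plates, had been dosed by pin tool the day after seeding with one drug alone or a fixed anchor-drug dose plus five library-drug doses (not always all listed) in √10 steps. Relative viability is the nuclei count in treated wells divided by that in vehicle wells, and each value is the median of duplicate plates.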

BEN = tested on: BEN
Procedure, shortened: as §1

CAL-12T = tested on: CAL-12T
Procedure, shortened: as §1

HCC-44 = tested on: HCC-44
Procedure, shortened: as §1

HCC-827 = tested on: HCC-827
Procedure, shortened: as §1

HOP-62 = tested on: HOP-62
Procedure, shortened: as §1

LCLC-103H = tested on: LCLC-103H
Procedure, shortened: as §1

LCLC-97TM1 = tested on: LCLC-97TM1
Procedure, shortened: as §1

LXF-289 = tested on: LXF-289
Procedure, shortened: as §1

NCI-H1395 = tested on: NCI-H1395
Procedure, shortened: as §1

NCI-H1437 = tested on: NCI-H1437
Procedure, shortened: as §1

NCI-H1650 = tested on: NCI-H1650
Procedure, shortened: as §1

NCI-H1793 = tested on: NCI-H1793
Procedure, shortened: as §1

NCI-H1944 = tested on: NCI-H1944
Procedure, shortened: as §1

NCI-H2087 = tested on: NCI-H2087
Procedure, shortened: as §1

NCI-H2228 = tested on: NCI-H2228
Procedure, shortened: as §1

NCI-H2405 = tested on: NCI-H2405
Procedure, shortened: as §1

NCI-H3122 = tested on: NCI-H3122
Procedure, shortened: as §1

NCI-H322M = tested on: NCI-H322M
Procedure, shortened: as §1

NCI-H647 = tested on: NCI-H647
Procedure, shortened: as §1

NCI-H727 = tested on: NCI-H727
Procedure, shortened: as §1

RERF-LC-KJ = tested on: RERF-LC-KJ
Procedure, shortened: as §1

SK-LU-1 = tested on: SK-LU-1
Procedure, shortened: as §1

C=C1C(=O)O[C@@H](CCCCCCCC)[C@@H]1C(=O)O [C-75] + CS(=O)(=O)N1CCN(Cc2cc3nc(-c4cccc5[nH]ncc45)nc(N4CCOCC4)c3s2)CC1 [Pictilisib] (partner 1 µM)
relative viability (201T; first compound 0.08 µM): 0.697
relative viability (201T; first compound 0.253 µM): 0.782
relative viability (201T; first compound 0.8 µM): 0.628
relative viability (201T; first compound 2.53 µM): 0.673
relative viability (201T; first compound 8 µM): 0.719
relative viability (BEN; first compound 0.08 µM): 0.541
relative viability (BEN; first compound 0.253 µM): 0.651
relative viability (BEN; first compound 0.8 µM): 0.538
relative viability (BEN; first compound 2.53 µM): 0.553
relative viability (BEN; first compound 8 µM): 0.443
relative viability (CAL-12T; first compound 0.08 µM): 0.58
relative viability (CAL-12T; first compound 0.253 µM): 0.624
relative viability (CAL-12T; first compound 0.8 µM): 0.306
relative viability (CAL-12T; first compound 2.53 µM): 0.292
relative viability (CAL-12T; first compound 8 µM): 0.486
relative viability (HCC-44; first compound 0.08 µM): 0.65
relative viability (HCC-44; first compound 0.253 µM): 0.599
relative viability (HCC-44; first compound 0.8 µM): 0.558
relative viability (HCC-44; first compound 2.53 µM): 0.622
relative viability (HCC-44; first compound 8 µM): 0.644
relative viability (HCC-827; first compound 0.08 µM): 0.954
relative viability (HCC-827; first compound 0.253 µM): 0.95
relative viability (HCC-827; first compound 0.8 µM): 1.14
relative viability (HCC-827; first compound 2.53 µM): 0.694
relative viability (HCC-827; first compound 8 µM): 0.915
relative viability (HOP-62; first compound 0.08 µM): 0.732
relative viability (HOP-62; first compound 0.253 µM): 0.927
relative viability (HOP-62; first compound 0.8 µM): 0.788
relative viability (HOP-62; first compound 2.53 µM): 0.73
relative viability (HOP-62; first compound 8 µM): 0.545
relative viability (LCLC-103H; first compound 0.08 µM): 0.573
relative viability (LCLC-103H; first compound 0.253 µM): 0.641
relative viability (LCLC-103H; first compound 0.8 µM): 0.517
relative viability (LCLC-103H; first compound 2.53 µM): 0.568
relative viability (LCLC-103H; first compound 8 µM): 0.488
relative viability (LCLC-97TM1; first compound 0.08 µM): 0.234
relative viability (LCLC-97TM1; first compound 0.253 µM): 0.215
relative viability (LCLC-97TM1; first compound 0.8 µM): 0.265
relative viability (LCLC-97TM1; first compound 2.53 µM): 0.187
relative viability (LCLC-97TM1; first compound 8 µM): 0.18
relative viability (LXF-289; first compound 0.08 µM): 0.77
relative viability (LXF-289; first compound 0.253 µM): 0.836
relative viability (LXF-289; first compound 0.8 µM): 0.76
relative viability (LXF-289; first compound 2.53 µM): 0.771
relative viability (LXF-289; first compound 8 µM): 0.73
relative viability (NCI-H1395; first compound 0.08 µM): 0.599
relative viability (NCI-H1395; first compound 0.253 µM): 0.572
relative viability (NCI-H1395; first compound 0.8 µM): 0.539
relative viability (NCI-H1395; first compound 2.53 µM): 0.474
relative viability (NCI-H1395; first compound 8 µM): 0.7
relative viability (NCI-H1437; first compound 0.08 µM): 0.489
relative viability (NCI-H1437; first compound 0.253 µM): 0.402
relative viability (NCI-H1437; first compound 0.8 µM): 0.464
relative viability (NCI-H1437; first compound 2.53 µM): 0.472
relative viability (NCI-H1437; first compound 8 µM): 0.491
relative viability (NCI-H1650; first compound 0.08 µM): 0.632
relative viability (NCI-H1650; first compound 0.253 µM): 0.691
relative viability (NCI-H1650; first compound 0.8 µM): 0.521
relative viability (NCI-H1650; first compound 2.53 µM): 0.474
relative viability (NCI-H1650; first compound 8 µM): 0.619
relative viability (NCI-H1793; first compound 0.08 µM): 0.339
relative viability (NCI-H1793; first compound 0.253 µM): 0.359
relative viability (NCI-H1793; first compound 0.8 µM): 0.324
relative viability (NCI-H1793; first compound 2.53 µM): 0.215
relative viability (NCI-H1793; first compound 8 µM): 0.372
relative viability (NCI-H1944; first compound 0.08 µM): 0.346
relative viability (NCI-H1944; first compound 0.253 µM): 0.34
relative viability (NCI-H1944; first compound 0.8 µM): 0.33
relative viability (NCI-H1944; first compound 8 µM): 0.342
relative viability (NCI-H2087; first compound 0.08 µM): 0.853
relative viability (NCI-H2087; first compound 0.253 µM): 0.844
relative viability (NCI-H2087; first compound 0.8 µM): 0.733
relative viability (NCI-H2087; first compound 2.53 µM): 0.428
relative viability (NCI-H2087; first compound 8 µM): 0.859
relative viability (NCI-H2228; first compound 0.08 µM): 0.429
relative viability (NCI-H2228; first compound 0.253 µM): 0.689
relative viability (NCI-H2228; first compound 0.8 µM): 0.221
relative viability (NCI-H2228; first compound 2.53 µM): 0.202
relative viability (NCI-H2228; first compound 8 µM): 0.324
relative viability (NCI-H2405; first compound 0.08 µM): 0.471
relative viability (NCI-H2405; first compound 0.253 µM): 0.307
relative viability (NCI-H2405; first compound 0.8 µM): 0.37
relative viability (NCI-H2405; first compound 2.53 µM): 0.408
relative viability (NCI-H2405; first compound 8 µM): 0.391
relative viability (NCI-H3122; first compound 0.08 µM): 0.635
relative viability (NCI-H3122; first compound 0.253 µM): 0.753
relative viability (NCI-H3122; first compound 0.8 µM): 0.545
relative viability (NCI-H3122; first compound 8 µM): 0.555
relative viability (NCI-H322M; first compound 0.08 µM): 0.563
relative viability (NCI-H322M; first compound 0.253 µM): 0.674
relative viability (NCI-H322M; first compound 0.8 µM): 0.514
relative viability (NCI-H322M; first compound 2.53 µM): 0.528
relative viability (NCI-H322M; first compound 8 µM): 0.489
relative viability (NCI-H647; first compound 0.08 µM): 0.449
relative viability (NCI-H647; first compound 0.253 µM): 0.427
relative viability (NCI-H647; first compound 2.53 µM): 0.396
relative viability (NCI-H647; first compound 8 µM): 0.498
relative viability (NCI-H727; first compound 0.08 µM): 0.436
relative viability (NCI-H727; first compound 0.253 µM): 0.59
relative viability (NCI-H727; first compound 0.8 µM): 0.339
relative viability (NCI-H727; first compound 2.53 µM): 0.362
relative viability (NCI-H727; first compound 8 µM): 0.577
relative viability (RERF-LC-KJ; first compound 0.08 µM): 0.564
relative viability (RERF-LC-KJ; first compound 0.253 µM): 0.528
relative viability (RERF-LC-KJ; first compound 0.8 µM): 0.625
relative viability (RERF-LC-KJ; first compound 2.53 µM): 0.537
relative viability (RERF-LC-KJ; first compound 8 µM): 0.533
relative viability (SK-LU-1; first compound 0.08 µM): 0.568
relative viability (SK-LU-1; first compound 0.253 µM): 0.638
relative viability (SK-LU-1; first compound 0.8 µM): 0.588
relative viability (SK-LU-1; first compound 2.53 µM): 0.574
relative viability (SK-LU-1; first compound 8 µM): 0.362

Reference: the supplement of paper PMC10307832
